Experiments:
[1] = test system: GM-CSFR/JAK2/STAT5 pathway in CSTF-1 cells; assay: CSTF-1 cell-based reporter assay (beta-lactamase, GM-CSF stimulated); settings: Homo sapiens; GM-CSF at 2 ng/mL, 4 hours; read-out: Cell Assay: CS TF-1 reporter assay IC50
Experimental: CSTF-1 Cell-Based Reporter Assay
CSTF-1 cells are derived from the human erythroleukemia cell line that is growth dependent on GM-CSF and has an intact GM-CSFR/JAK2/STAT5 pathway. The cell line contains stably integrated beta-lactamase reporter gene under the control of the […] (irf 1) response element recognized by the activated transcription factor STATS. csTF-1 cells (Invitrogen K1219) were washed with assay media (97% OPTIMEM/0.5% dialyzed FBS/0.1 mM NEAA/1 mM Na pyr/P/S) and seeded in the same media at 5×10^5 cell/mL in T150 flask. After 16 hour incubation, cells were seeded at 2×10^5 cell/well in 50 μl volume, into Costar, clear bottom, 96-well assay plates. Serial dilutions of compounds were added to the plates with final DMSO concentration at 0.5% and GM-CSF at 2 ng/mL and the plates were then incubated at […] and 5% CO2 for 4 hours. The plates were brought to room temperature before adding Substrate Mixture according to manufacturer's protocol (Invitrogen, Catalog #K1085). The assay plates containing the substrate mixture were incubated in the dark at room temperature for 2 hours. Blue and green fluorescence was measured with excitation at 409 nm and emission at 460 nm (for blue) and excitation at 409 nm and emission at 530 nm (for green) using Spectra Max Gemini EM.

JAK2 = target: T1, JAK2 (Homo sapiens, UniProt O60674); assay: Competition binding assay, JAK2
T1 construct: made in house
Excerpt: (§1) Determination of Binding Constants (Kd) of the Compounds Against JAK Kinases
(§2) Competition binding assays used herein were developed, validated and performed as described in Fabian et al., Nature Biotechnology 2005, 23,329-336. Kinases were produced as fusions to T7 phage (See, Fabian et al. or WO04/015142) or alternatively, the kinases were expressed in HEK-293 cells and subsequently tagged with DNA for PCR detection (See, WO08/005,310). For the binding assays, streptavidin-coated magnetic beads were treated with biotinylated affinity ligands for 30 min at rt to generate affinity resins. The liganded beads were blocked with excess biotin and washed with blocking buffer (SeaBlock (Pierce), 1% BSA, 0.05% Tween 20, 1 mM DTT) to remove unbound ligand and to reduce non-specific binding. Binding reactions were assembled by combining kinase, liganded affinity beads, and test compounds in 1× binding buffer (20% SeaBlock, 0.17×PBS, 0.05% Tween 20, 6 mM DTT). Test compounds were prepared as 100× stocks in DMSO and rapidly diluted into the aqueous environment. DMSO was added to control assays lacking a test compound. Primary screen interactions were performed in polypropylene 384-well plates in a final volume of 34 μL, while Kd determinations were performed in polystyrene 96-well plates in a final volume of 135 μL. The assay plates were incubated at room temperature with shaking for 1 hour, long enough for binding reactions to reach equilibrium, and the affinity beads were washed extensively with wash buffer (1×PBS, 0.05% Tween 20) to remove unbound protein. The beads were then resuspended in elution buffer (1×PBS, 0.05% Tween 20, 2 μM non-biotinylated affinity ligand) and incubated at room temperature with shaking for 30 min. The kinase concentration in the eluates was measured by quantitative PCR. Each kinase was tested individually against each compound. Kds were determined using eleven serial threefold dilutions. A selectivity score, which is a quantitative measure of selectivity of a compound against a panel of enzymes, may be calculated for a compound by dividing the number of enzymes for which a compound meets a set criteria, (for example, a binding constant of 100 nM or less), by the total number of enzymes tested.

[2] = test system: panel of distinct kinases excluding mutant variants, typically 359 or 386 kinases; assay: Kinase selectivity score S10 from binding panel; settings: compound at 10 μM; fraction of kinases with inhibition of 90% or greater
Experimental: as §2

JAK3 = target: T2, JAK3 (Homo sapiens, UniProt P52333); assay: Competition binding assay, JAK3
T2 construct: made in house
T2 sequence (P52333 1-1124): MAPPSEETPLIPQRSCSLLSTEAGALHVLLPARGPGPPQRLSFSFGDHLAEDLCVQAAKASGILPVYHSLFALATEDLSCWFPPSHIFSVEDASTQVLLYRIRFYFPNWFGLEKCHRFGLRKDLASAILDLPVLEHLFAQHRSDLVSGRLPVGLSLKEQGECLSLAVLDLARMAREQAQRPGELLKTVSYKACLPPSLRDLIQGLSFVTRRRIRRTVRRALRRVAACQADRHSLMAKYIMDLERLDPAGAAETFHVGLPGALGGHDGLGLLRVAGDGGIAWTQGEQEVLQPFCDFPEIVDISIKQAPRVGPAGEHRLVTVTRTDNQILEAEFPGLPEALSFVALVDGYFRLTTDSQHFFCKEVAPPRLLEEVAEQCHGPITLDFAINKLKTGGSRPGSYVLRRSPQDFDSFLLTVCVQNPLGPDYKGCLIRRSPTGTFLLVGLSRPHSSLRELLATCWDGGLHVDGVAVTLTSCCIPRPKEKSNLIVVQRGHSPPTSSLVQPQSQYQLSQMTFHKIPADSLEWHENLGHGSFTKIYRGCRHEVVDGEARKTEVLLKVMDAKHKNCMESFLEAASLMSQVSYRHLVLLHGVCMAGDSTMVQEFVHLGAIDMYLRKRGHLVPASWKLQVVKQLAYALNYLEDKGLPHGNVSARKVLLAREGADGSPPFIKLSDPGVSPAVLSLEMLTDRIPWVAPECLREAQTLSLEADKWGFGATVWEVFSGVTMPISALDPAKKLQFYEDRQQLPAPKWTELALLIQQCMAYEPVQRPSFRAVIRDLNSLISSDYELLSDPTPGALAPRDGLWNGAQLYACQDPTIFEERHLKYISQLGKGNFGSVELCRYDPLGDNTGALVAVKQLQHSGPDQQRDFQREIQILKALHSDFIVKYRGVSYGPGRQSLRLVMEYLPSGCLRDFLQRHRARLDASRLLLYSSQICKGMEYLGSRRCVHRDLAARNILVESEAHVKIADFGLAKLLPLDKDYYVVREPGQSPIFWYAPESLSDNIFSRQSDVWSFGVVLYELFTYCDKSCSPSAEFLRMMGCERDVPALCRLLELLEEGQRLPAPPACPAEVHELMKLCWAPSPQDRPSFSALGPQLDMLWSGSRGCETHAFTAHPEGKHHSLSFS
Excerpt: as §1, §2

TYK2 = target: T3, TYK2 (Homo sapiens, UniProt P29597); assay: Competition binding assay, TYK2
T3 construct: made in house
Excerpt: as §1, §2

T3 sequence (P29597 whole entry): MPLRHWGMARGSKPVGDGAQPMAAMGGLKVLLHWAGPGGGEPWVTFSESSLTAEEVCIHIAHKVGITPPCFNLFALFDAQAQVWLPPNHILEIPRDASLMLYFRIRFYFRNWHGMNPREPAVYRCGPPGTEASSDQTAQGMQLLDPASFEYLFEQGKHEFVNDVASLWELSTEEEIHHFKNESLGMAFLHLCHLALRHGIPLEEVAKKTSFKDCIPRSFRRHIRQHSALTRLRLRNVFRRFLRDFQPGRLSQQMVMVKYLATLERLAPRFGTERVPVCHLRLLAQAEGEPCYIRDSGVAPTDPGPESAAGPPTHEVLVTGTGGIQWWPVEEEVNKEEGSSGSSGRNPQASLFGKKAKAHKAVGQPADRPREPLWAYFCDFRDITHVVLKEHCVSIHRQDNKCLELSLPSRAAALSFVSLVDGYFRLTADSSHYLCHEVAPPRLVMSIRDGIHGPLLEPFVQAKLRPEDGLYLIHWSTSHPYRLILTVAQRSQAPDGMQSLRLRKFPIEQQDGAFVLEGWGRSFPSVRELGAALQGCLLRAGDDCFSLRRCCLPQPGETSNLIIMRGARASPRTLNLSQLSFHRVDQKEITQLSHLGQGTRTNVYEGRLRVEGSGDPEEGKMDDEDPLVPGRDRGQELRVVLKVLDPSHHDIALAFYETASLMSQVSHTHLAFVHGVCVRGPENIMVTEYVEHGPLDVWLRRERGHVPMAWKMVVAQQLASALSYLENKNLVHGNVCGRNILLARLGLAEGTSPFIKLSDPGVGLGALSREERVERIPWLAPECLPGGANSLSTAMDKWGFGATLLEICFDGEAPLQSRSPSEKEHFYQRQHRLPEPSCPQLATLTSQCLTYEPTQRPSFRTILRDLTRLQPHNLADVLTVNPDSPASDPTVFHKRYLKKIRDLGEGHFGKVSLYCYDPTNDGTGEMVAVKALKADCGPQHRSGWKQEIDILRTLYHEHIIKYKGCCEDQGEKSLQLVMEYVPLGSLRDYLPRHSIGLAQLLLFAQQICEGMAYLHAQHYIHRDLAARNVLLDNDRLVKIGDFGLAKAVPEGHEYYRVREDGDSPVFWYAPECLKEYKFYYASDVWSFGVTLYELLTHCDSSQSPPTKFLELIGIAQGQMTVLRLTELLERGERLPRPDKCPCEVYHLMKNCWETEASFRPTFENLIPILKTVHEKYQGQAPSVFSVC
T1 sequence (O60674 whole entry): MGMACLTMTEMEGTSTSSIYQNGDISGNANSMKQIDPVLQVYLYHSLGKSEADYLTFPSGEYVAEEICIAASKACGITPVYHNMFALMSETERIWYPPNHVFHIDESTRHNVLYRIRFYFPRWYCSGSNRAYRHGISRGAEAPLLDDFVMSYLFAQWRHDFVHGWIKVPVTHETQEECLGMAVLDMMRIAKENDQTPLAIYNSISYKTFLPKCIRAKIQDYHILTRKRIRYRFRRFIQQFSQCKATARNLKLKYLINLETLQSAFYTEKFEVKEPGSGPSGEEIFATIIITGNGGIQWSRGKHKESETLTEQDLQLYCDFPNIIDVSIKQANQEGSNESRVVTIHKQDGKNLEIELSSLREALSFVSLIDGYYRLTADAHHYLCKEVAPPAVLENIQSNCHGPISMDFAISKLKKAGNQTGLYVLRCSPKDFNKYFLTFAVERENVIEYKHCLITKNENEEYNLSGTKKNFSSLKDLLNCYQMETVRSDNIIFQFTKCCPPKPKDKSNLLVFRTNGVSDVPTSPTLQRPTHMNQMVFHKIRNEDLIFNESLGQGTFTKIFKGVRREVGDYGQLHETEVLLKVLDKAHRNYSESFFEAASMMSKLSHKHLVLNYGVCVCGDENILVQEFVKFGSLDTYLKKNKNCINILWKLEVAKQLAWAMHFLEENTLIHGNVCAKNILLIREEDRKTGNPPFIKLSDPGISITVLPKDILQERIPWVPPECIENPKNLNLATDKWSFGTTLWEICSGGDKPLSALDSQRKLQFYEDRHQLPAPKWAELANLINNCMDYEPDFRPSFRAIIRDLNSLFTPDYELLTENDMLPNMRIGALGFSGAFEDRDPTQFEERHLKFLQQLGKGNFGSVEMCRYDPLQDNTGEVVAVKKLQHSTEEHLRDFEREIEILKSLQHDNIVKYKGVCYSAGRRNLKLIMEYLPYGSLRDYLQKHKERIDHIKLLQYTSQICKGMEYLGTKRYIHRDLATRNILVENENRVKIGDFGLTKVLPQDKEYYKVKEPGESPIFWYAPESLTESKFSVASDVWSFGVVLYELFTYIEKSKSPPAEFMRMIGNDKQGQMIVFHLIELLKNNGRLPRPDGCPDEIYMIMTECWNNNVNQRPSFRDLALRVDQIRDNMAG

Compound	IC50 [1]	Kd (JAK2)	S-Score: S(10) at 10 μM [2]	Kd (JAK3)	Kd (TYK2)
Cc1cc(Nc2nc([C@]3(c4ccc(F)cc4)C[C@@H](O)C3)nc3ccccc23)n[nH]1 [Example 3, (1R,3R)-3-(4-fluorophenyl)-3-(4-((5-methyl-1H-pyrazol-3-yl)amino)quinazolin-2-yl)cyclobutanol]	100 to 500 nM	≤ 1 nM	A (A≦0.3)	10 to 100 nM	10 to 100 nM
Cc1cc(Nc2nc([C@]3(c4ccc(F)cc4)C[C@H](O)C3)nc3ccccc23)n[nH]1 [Example 1, (1S,3S)-3-(4-fluorophenyl)-3-(4-(5-methyl-1H-pyrazol-3-ylamino)quinazolin-2-yl)cyclobutanol]	100 to 500 nM	≤ 1 nM	A (A≦0.3)	10 to 100 nM	10 to 100 nM
Cc1cc(Nc2nc([C@]3(c4ccc(F)cc4)C[C@@H](F)C3)nc3ccccc23)n[nH]1 [Example 2, 2-((1R,3R)-3-fluoro-1-(4-fluorophenyl)cyclobutyl)-N-(5-methyl-1H-pyrazol-3-yl)quinazolin-4-amine]	> 500 nM	1 to 10 nM	A (A≦0.3)	10 to 100 nM	10 to 100 nM
Cc1cc(Nc2nc(C3(c4ccc(F)cc4)CCOCC3)nc3ccccc23)n[nH]1 [Example 4, 2-(4-(4-fluorophenyl)tetrahydro-2H-pyran-4-yl)-N-(5-methyl-1H-pyrazol-3-yl)quinazolin-4-amine]	100 to 500 nM	1 to 10 nM	A (A≦0.3)	10 to 100 nM	≤ 10 nM
